Literature values, collected in US7750010B2, “Tricyclic anilide spirohydantion CGRP receptor antagonists” (Merck Sharp & Dohme Corp., priority 2004, dated 2010).
No end group written: not given here.

Experiments:
middle meningeal artery = conditions: rats, electrical stimulation of the dura mater, prior administration
facial blood flow [1] = conditions: rat, trigeminal ganglion stimulation
facial blood flow [2] = conditions: marmoset, electrical stimulation of the trigeminal ganglion

CGRP(8-37): a fragment of CGRP that lacks seven N-terminal amino acid residues; a peptide CGRP antagonist (VTHRLAGLLSRSGGVVKNNFVPTNVGSKAF; ends and bridges not checked; UniProt P06881 90-119, looked up, fragment)
effect on increase in diameter of the middle meningeal artery (middle meningeal artery): blocked
effect on increased facial blood flow (facial blood flow [1]): inhibited

NCCCC[C@H](NC(=O)[C@@H](Cc1cc(Br)c(O)c(Br)c1)NC(=O)N1CCC(N2Cc3ccccc3NC2=O)CC1)C(=O)N1CCN(c2ccncc2)CC1 [BIBN4096BS]
effect on increase in facial blood flow (facial blood flow [2]): could be blocked
